These compounds were tested on E. multilocularis metacestode vesicles (assay: Phosphoglucose isomerase (PGI) release assay (damage-marker release) on metacestode vesicles). Conditions: confirmation screen, 10 μM, triplicates, mean, 5 days.
Type: cell-based, Echinococcus multilocularis
Protocol: In order to quantify the drug-induced damage on whole metacestode vesicles, phosphoglucose isomerase (PGI) assay was performed as described previously ([Stadelmann et al., 2010]) with few adaptations published recently ([Kaethner et al., 2023]). In short, 8 to 12 weeks-old metacestode vesicles were purified using 2 % sucrose with subsequent washes in PBS. Metacestode vesicles were diluted in two volumes of DMEM without phenol red containing penicillin (100 U/mL) and streptomycin (100 μg/mL). […] 0.1 % DMSO was used as a negative solvent control and 0.1 % Triton X-100 was used as a positive total damage control. Metacestode vesicles were incubated under a humid, 5 % CO2 atmosphere at 37 °C. After five and twelve days, supernatant was taken and pictures were made using a Nikon SMZ18 stereo microscope (Nikon, Basel, Switzerland) at 7.5 × magnification. PGI activity in the supernatants was measured on a HIDEX Sense microplate reader (Hidex, Turku, Finland). The corresponding values of the DMSO controls were subtracted from the values of the compounds and then PGI activity was calculated relative to 0.1 % Triton X-100. […] IC50 values were calculated applying the 3 parameter Weibull type 1 in R for each of the three independent experiments ([Ritler et al., 2020]).

| Compound | PGI d5 (relative PGI release) |
| --- | --- |
| CCc1cc(Cc2cnc(N)nc2N)cc2c1N(C)CCC2C (stereo not drawn) [MMV1582490] | 0.0536% |
| COc1ccc2nc(-c3ccccc3)cc(O)c2c1 [MMV011565] | 0.13% |
| N=c1n(CCN2CCCCC2)c2ccccc2n1CC(O)COc1ccc(Cl)cc1Cl (stereo not drawn) [MMV394033] | 0.57% |
| Fc1ccc(-c2nc(-c3c[nH]c4ccc(Br)cc34)[nH]c2-c2ccc(F)cc2)cc1 [MMV1593537] | 0.49% |

Same assay, conditions: confirmation screen, 10 μM, triplicates, mean, 12 days

| Compound | PGI d12 (relative PGI release) |
| --- | --- |
| CCc1cc(Cc2cnc(N)nc2N)cc2c1N(C)CCC2C (stereo not drawn) [MMV1582490] | -0.39% |
| COc1ccc2nc(-c3ccccc3)cc(O)c2c1 [MMV011565] | -0.59% |
| N=c1n(CCN2CCCCC2)c2ccccc2n1CC(O)COc1ccc(Cl)cc1Cl (stereo not drawn) [MMV394033] | 0.65% |
| Fc1ccc(-c2nc(-c3c[nH]c4ccc(Br)cc34)[nH]c2-c2ccc(F)cc2)cc1 [MMV1593537] | -0.0663% |

Same assay, conditions: overview screen, 10 μM, singlets, 5 days, relative to 0.1 % Triton X-100, DMSO subtracted

| Compound | PGI d5 (relative PGI release) |
| --- | --- |
| COc1ccccc1CN[C@H]1C2CCN(CC2)[C@H]1C(c1ccccc1)c1ccccc1 [MMV690480] | -0.6012% |
| O=C(O)C(Cc1c[nH]c2ccccc12)N1C(=O)c2ccccc2C1=O (stereo not drawn) [MMV452821] | 1.873% |
| COc1ccc2sc3c(c2c1)NC(C)CNC3=O (stereo not drawn) [MMV1782115] | -1.121% |
| CCc1nc2ccc(Cl)cn2c1C(=O)NCc1ccc(N2CCC(c3ccc(OC(F)(F)F)cc3)CC2)cc1 [MMV687696] | -3.859% |
| CC1=C(/C=C/C(C)=C/C=C/C(C)=C/C(=O)Nc2ccc(O)cc2)C(C)(C)CCC1 [MMV001793] | 0.1304% |
| COc1cc(Cc2cnc(N)nc2N)cc(OC)c1OC [MMV000028] | -3.0237% |
| COc1c(F)c(F)cc2c(=O)c(C(=O)O)cn(C3CC3)c12 [MMV1480967] | 0.2423% |
| Nc1nc2c(Cc3cccnc3)c[nH]c2c(=O)[nH]1 [MMV1782355] | -0.9111% |
| CC(C)(C)c1ccc(C(Cn2cccc(C(F)(F)F)c2=O)NC2Cc3ccccc3C2)cc1 (stereo not drawn) [MMV1634393] | -0.3467% |
| N#C/C(=C1/SC[C@@H](c2ccc(Cl)cc2Cl)S1)n1ccnc1 [MMV1782224] | 12.0659% |
| N#CCN1C(=O)COc2cc(F)c(N3C(=O)c4ccccc4C3=O)cc21 [MMV1579785] | -1.9012% |
| NCc1ccc(S(N)(=O)=O)cc1 [MMV002665] | 0.8805% |
| CCc1cc(Cc2cnc(N)nc2N)cc2c1N(C)CCC2C (stereo not drawn) [MMV1582490] | 9.437% |
| COc1ccc2nc(-c3ccccc3)cc(O)c2c1 [MMV011565] | 5.903% |
| N=c1n(CCN2CCCCC2)c2ccccc2n1CC(O)COc1ccc(Cl)cc1Cl (stereo not drawn) [MMV394033] | 6.943% |
| Fc1ccc(-c2nc(-c3c[nH]c4ccc(Br)cc34)[nH]c2-c2ccc(F)cc2)cc1 [MMV1593537] | 27.6196% |

Same assay, conditions: overview screen, 10 μM, singlets, 12 days, relative to 0.1 % Triton X-100, DMSO subtracted

| Compound | PGI d12 (relative PGI release) |
| --- | --- |
| COc1ccccc1CN[C@H]1C2CCN(CC2)[C@H]1C(c1ccccc1)c1ccccc1 [MMV690480] | -18.8913% |
| O=C(O)C(Cc1c[nH]c2ccccc12)N1C(=O)c2ccccc2C1=O (stereo not drawn) [MMV452821] | 0.986% |
| COc1ccc2sc3c(c2c1)NC(C)CNC3=O (stereo not drawn) [MMV1782115] | 1.77% |
| CCc1nc2ccc(Cl)cn2c1C(=O)NCc1ccc(N2CCC(c3ccc(OC(F)(F)F)cc3)CC2)cc1 [MMV687696] | -6.627% |
| CC1=C(/C=C/C(C)=C/C=C/C(C)=C/C(=O)Nc2ccc(O)cc2)C(C)(C)CCC1 [MMV001793] | -19.3598% |
| COc1cc(Cc2cnc(N)nc2N)cc(OC)c1OC [MMV000028] | -24.4435% |
| COc1c(F)c(F)cc2c(=O)c(C(=O)O)cn(C3CC3)c12 [MMV1480967] | -3.0894% |
| Nc1nc2c(Cc3cccnc3)c[nH]c2c(=O)[nH]1 [MMV1782355] | 0.236% |
| CC(C)(C)c1ccc(C(Cn2cccc(C(F)(F)F)c2=O)NC2Cc3ccccc3C2)cc1 (stereo not drawn) [MMV1634393] | 0.3021% |
| N#C/C(=C1/SC[C@@H](c2ccc(Cl)cc2Cl)S1)n1ccnc1 [MMV1782224] | -22.8965% |
| N#CCN1C(=O)COc2cc(F)c(N3C(=O)c4ccccc4C3=O)cc21 [MMV1579785] | -13.7258% |
| NCc1ccc(S(N)(=O)=O)cc1 [MMV002665] | -5.499% |
| CCc1cc(Cc2cnc(N)nc2N)cc2c1N(C)CCC2C (stereo not drawn) [MMV1582490] | 80.495% |
| COc1ccc2nc(-c3ccccc3)cc(O)c2c1 [MMV011565] | 49.0323% |
| N=c1n(CCN2CCCCC2)c2ccccc2n1CC(O)COc1ccc(Cl)cc1Cl (stereo not drawn) [MMV394033] | 70.607% |
| Fc1ccc(-c2nc(-c3c[nH]c4ccc(Br)cc34)[nH]c2-c2ccc(F)cc2)cc1 [MMV1593537] | 72.794% |

What follows are compounds tested on E. multilocularis metacestode vesicles (assay: Metacestode vesicle viability assay (ATP, CellTiter-Glo)). Conditions: 10 µM.
Type: cell-based, Echinococcus multilocularis
Protocol: Viability was assessed after 12 days using the same metacestode vesicles as for the PGI release assay. Triton X-100 was added to each well to a final concentration of 0.1 %. Subsequently the metacestode vesicles were broken mechanically and 50 μL of the supernatant was mixed with 50 μL of CellTiter-Glo® buffer (Promega, Dübendorf, Switzerland). Measurements were performed on a HIDEX Sense microplate reader.

| Compound | Viability d12 (relative viability) |
| --- | --- |
| N#C/C(=C1/SC[C@@H](c2ccc(Cl)cc2Cl)S1)n1ccnc1 [MMV1782224] | 41.9155% |
| NCc1ccc(S(N)(=O)=O)cc1 [MMV002665] | 140.59% |

Same assay, conditions: confirmation screen, 10 μM, triplicates, mean, 12 days

| Compound | Viability d12 (relative viability) |
| --- | --- |
| CCc1cc(Cc2cnc(N)nc2N)cc2c1N(C)CCC2C (stereo not drawn) [MMV1582490] | 117.48% |
| COc1ccc2nc(-c3ccccc3)cc(O)c2c1 [MMV011565] | 78.39% |
| N=c1n(CCN2CCCCC2)c2ccccc2n1CC(O)COc1ccc(Cl)cc1Cl (stereo not drawn) [MMV394033] | 90.34% |
| Fc1ccc(-c2nc(-c3c[nH]c4ccc(Br)cc34)[nH]c2-c2ccc(F)cc2)cc1 [MMV1593537] | 69.22% |

Same assay, conditions: overview screen, 10 μM, singlets, 12 days, relative to DMSO control

| Compound | Viability d12 (relative viability) |
| --- | --- |
| COc1ccccc1CN[C@H]1C2CCN(CC2)[C@H]1C(c1ccccc1)c1ccccc1 [MMV690480] | 61.0456% |
| O=C(O)C(Cc1c[nH]c2ccccc12)N1C(=O)c2ccccc2C1=O (stereo not drawn) [MMV452821] | 132.36% |
| COc1ccc2sc3c(c2c1)NC(C)CNC3=O (stereo not drawn) [MMV1782115] | 114.23% |
| CCc1nc2ccc(Cl)cn2c1C(=O)NCc1ccc(N2CCC(c3ccc(OC(F)(F)F)cc3)CC2)cc1 [MMV687696] | 83.8288% |
| CC1=C(/C=C/C(C)=C/C=C/C(C)=C/C(=O)Nc2ccc(O)cc2)C(C)(C)CCC1 [MMV001793] | 54.0144% |
| COc1cc(Cc2cnc(N)nc2N)cc(OC)c1OC [MMV000028] | 71.724% |
| COc1c(F)c(F)cc2c(=O)c(C(=O)O)cn(C3CC3)c12 [MMV1480967] | 115.193% |
| Nc1nc2c(Cc3cccnc3)c[nH]c2c(=O)[nH]1 [MMV1782355] | 81.2481% |
| CC(C)(C)c1ccc(C(Cn2cccc(C(F)(F)F)c2=O)NC2Cc3ccccc3C2)cc1 (stereo not drawn) [MMV1634393] | 102.314% |
| N#CCN1C(=O)COc2cc(F)c(N3C(=O)c4ccccc4C3=O)cc21 [MMV1579785] | 95.5206% |
| CCc1cc(Cc2cnc(N)nc2N)cc2c1N(C)CCC2C (stereo not drawn) [MMV1582490] | 27.4864% |
| COc1ccc2nc(-c3ccccc3)cc(O)c2c1 [MMV011565] | 19.5448% |
| N=c1n(CCN2CCCCC2)c2ccccc2n1CC(O)COc1ccc(Cl)cc1Cl (stereo not drawn) [MMV394033] | 9.628% |
| Fc1ccc(-c2nc(-c3c[nH]c4ccc(Br)cc34)[nH]c2-c2ccc(F)cc2)cc1 [MMV1593537] | 8.099% |

Source: publication PMC12410356 (International Journal for Parasitology: Drugs and Drug …, 2025)
